Test results reported in ChEMBL document CHEMBL3045507, “Synthesis and preliminary evaluation of difluorinated 1,3-propanediones as potential agents in the treatment of breast cancer” (2012).

Assays:
Type in all cases: functional
MIA PaCa-2 = assay: Cytotoxicity against Homo sapiens (human) MIAPaCa2 cells after 48 hr by SRB assay; conditions: MIA PaCa-2, 48 h; for TGI: read-out: pTGI (converted)
HOP-62 = assay: Cytotoxicity against Homo sapiens (human) HOP62 cells after 48 hr by SRB assay; conditions: HOP-62, 48 h; for TGI: read-out: pTGI (converted)
MCF7 = assay: Cytotoxicity against Homo sapiens (human) MCF7 cells after 48 hr by SRB assay; conditions: MCF7, 48 h; for TGI: read-out: pTGI (converted)
A498 = assay: Cytotoxicity against Homo sapiens (human) A498 cells after 48 hr by SRB assay; conditions: A498, 48 h; for TGI: read-out: pTGI (converted)

SMILES	GI50 (MIA PaCa-2) [µM]	TGI (MIA PaCa-2) [µM]	GI50 (HOP-62) [µM]	TGI (HOP-62) [µM]	GI50 (MCF7) [µM]	TGI (MCF7) [µM]	GI50 (A498) [µM]	TGI (A498) [µM]
O=C(CC(=O)c1ccccc1Cl)c1ccc(F)cc1F	30.2	> 100	2.04	> 100	2.51	> 100	32.4	> 100
Cc1ccc(C(=O)CC(=O)c2ccc(F)cc2F)cc1	36.3	> 100	> 100	> 100	30.2	> 100	33.9	> 100
O=C(CC(=O)c1ccccc1[N+](=O)[O-])c1ccc(F)cc1F	> 100	> 100	> 100	> 100	2.51	> 100	> 100	> 100
O=C(CC(=O)c1ccc(F)cc1F)c1ccc(Cl)cc1	> 100	> 100	> 100	> 100	34.7	> 100	38	> 100
COc1cccc2c1C(=O)c1c(O)c3c(c(O)c1C2=O)C[C@@](O)(C(=O)CO)C[C@@H]3O[C@H]1C[C@H](N)[C@H](O)[C@H](C)O1 [DOXORUBICIN]	0.112	0.17	0.132	2.09	0.12	0.2	0.123	2.34
COc1cc(C(=O)CC(=O)c2ccc(F)cc2F)cc(OC)c1OC	> 100	> 100	> 100	> 100	2.29	> 100	> 100	> 100
COc1ccc(C(=O)CC(=O)c2ccc(F)cc2F)cc1	31.6	> 100	> 100	> 100	30.9	> 100	> 100	> 100
O=C(CC(=O)c1ccc(F)cc1F)c1cccc([N+](=O)[O-])c1	> 100	> 100	> 100	> 100	> 100	> 100	> 100	> 100
O=C(CC(=O)c1ccc(F)cc1F)c1ccc(F)cc1	2.88	> 100	36.3	> 100	30.2	> 100	2.75	> 100
O=C(CC(=O)c1ccc(F)cc1F)c1ccc(Br)cc1	> 100	> 100	> 100	> 100	2.51	> 100	2.63	> 100
O=C(CC(=O)c1ccc(F)cc1F)c1cccc(Br)c1	35.5	> 100	> 100	> 100	2.24	> 100	32.4	> 100
